From ChEMBL document CHEMBL1147715, “Gatifloxacin derivatives: synthesis, antimycobacterial activities, and inhibition of Mycobacterium tuberculosis DNA gyrase” (Bioorg Med Chem Lett, 2006)
Converted amounts (≈) assume the structure as drawn.

Assays:
Vero = assay: Cytotoxicity against Vero cell line at 62.5 ug/ml after 72 hrs; format: functional, cell-based; conditions: Chlorocebus sabaeus
[1] = system: Mycobacterium tuberculosis; assay: Antimycobacterial activity against Mycobacterium tuberculosis H37Rv; format: functional
[2] = Inhibition of Mycobacterium tuberculosis DNA gyrase
[3] = system: Mycobacterium tuberculosis; assay: Activity against Mycobacterium tuberculosis ATCC 35801 in CD1 mouse at 50 mg/kg assessed as decrease in bacterial load in lung relative to control; format: functional
[4] = system: Mycobacterium tuberculosis; assay: Selectivity index (IC50/MIC); format: functional
[5] = system: Mycobacterium tuberculosis; assay: Activity against Mycobacterium tuberculosis ATCC 35801 in CD1 mouse at 50 mg/kg assessed as decrease in bacterial load in spleen relative to control; format: functional

Structure (SMILES) | Activity (Vero) | MIC [1] [µg/mL] | IC50 [2] [µg/mL] | Log10 cfu [3] | Selectivity index [4] | Log10 cfu [5]
COc1c(N2CCN(Cn3c(O)c(/N=N/C(=O)c4ccncc4)c4cc(F)ccc43)C(C)C2)c(F)cc2c(=O)c(C(=O)O)cn(C3CC3)c12 (centres undefined) | Not toxic | 0.78 (≈ 1.16 µM) |  |  |  | 
COc1c(N2CCN(Cn3c(O)c(/N=N/C(N)=O)c4ccccc43)C(C)C2)c(F)cc2c(=O)c(C(=O)O)cn(C3CC3)c12 (centres undefined) | Not toxic | 0.0125 (≈ 0.0211 µM) | 3 (≈ 5.07 µM) | 4.26 | > 1250 | 5.08
COc1c(N2CCN(Cn3c(O)c(/N=N/C(=N)S)c4cc(F)ccc43)C(C)C2)c(F)cc2c(=O)c(C(=O)O)cn(C3CC3)c12 (centres undefined) | Not toxic | 0.1 (≈ 0.16 µM) | 8 (≈ 12.8 µM) |  |  | 
COc1c(N2CCN(CN3C(=O)/C(=N\c4ccc(S(=O)(=O)Nc5ncccn5)cc4)c4cc(C)ccc43)C(C)C2)c(F)cc2c(=O)c(C(=O)O)cn(C3CC3)c12 (centres undefined) | Not toxic | 0.1 (≈ 0.128 µM) | 3 (≈ 3.84 µM) |  |  | 
COc1c(N2CCN(Cn3c(O)c(/N=N/C(=O)c4ccncc4)c4cc(Cl)ccc43)C(C)C2)c(F)cc2c(=O)c(C(=O)O)cn(C3CC3)c12 (centres undefined) | Not toxic | 0.39 (≈ 0.567 µM) | 5 (≈ 7.27 µM) |  |  | 
COc1c(N2CCN(CN3C(=O)/C(=N\c4ccc(S(=O)(=O)Nc5ncccn5)cc4)c4cc(F)ccc43)C(C)C2)c(F)cc2c(=O)c(C(=O)O)cn(C3CC3)c12 (centres undefined) | Not toxic | 0.2 (≈ 0.255 µM) | 6 (≈ 7.65 µM) |  |  | 
COc1c(N2CCN(CN3C(=O)/C(=N\c4ccc(S(=O)(=O)Nc5ncccn5)cc4)c4cc(Cl)ccc43)C(C)C2)c(F)cc2c(=O)c(C(=O)O)cn(C3CC3)c12 (centres undefined) | Not toxic | 0.1 (≈ 0.125 µM) | 6 (≈ 7.49 µM) |  |  | 
COc1c(N2CCN(Cn3c(O)c(/N=N/C(N)=O)c4cc(C)ccc43)C(C)C2)c(F)cc2c(=O)c(C(=O)O)cn(C3CC3)c12 (centres undefined) | Not toxic | 0.39 (≈ 0.644 µM) | 4.5 (≈ 7.43 µM) |  |  | 
COc1c(N2CCN(Cn3c(O)c(/N=N/C(=N)S)c4cc(Cl)ccc43)C(C)C2)c(F)cc2c(=O)c(C(=O)O)cn(C3CC3)c12 (centres undefined) | Not toxic | 0.39 (≈ 0.607 µM) | 4 (≈ 6.23 µM) |  |  | 
COc1c(N2CCN(Cn3c(O)c(/N=N/C(N)=O)c4cc(F)ccc43)C(C)C2)c(F)cc2c(=O)c(C(=O)O)cn(C3CC3)c12 (centres undefined) | Not toxic | 0.2 (≈ 0.328 µM) | 4 (≈ 6.56 µM) |  |  | 
COc1c(N2CCN(Cn3c(O)c(/N=N/C(=O)c4ccncc4)c4ccccc43)C(C)C2)c(F)cc2c(=O)c(C(=O)O)cn(C3CC3)c12 (centres undefined) | Not toxic | 0.78 (≈ 1.19 µM) | 4 (≈ 6.12 µM) |  |  | 
COc1c(N2CCN(CN3C(=O)/C(=N\c4ccc(S(=O)(=O)Nc5ncccn5)cc4)c4ccccc43)C(C)C2)c(F)cc2c(=O)c(C(=O)O)cn(C3CC3)c12 (centres undefined) | Not toxic | 0.2 (≈ 0.261 µM) | 8 (≈ 10.4 µM) |  |  | 
COc1c(N2CCN(Cn3c(O)c(/N=N/C(N)=O)c4cc(Cl)ccc43)C(C)C2)c(F)cc2c(=O)c(C(=O)O)cn(C3CC3)c12 (centres undefined) | Not toxic | 0.39 (≈ 0.623 µM) | 4 (≈ 6.39 µM) |  |  | 
COc1c(N2CCN(Cn3c(O)c(/N=N/C(=N)S)c4cc(C)ccc43)C(C)C2)c(F)cc2c(=O)c(C(=O)O)cn(C3CC3)c12 (centres undefined) | Not toxic | 0.78 (≈ 1.25 µM) | 10 (≈ 16.1 µM) |  |  | 
COc1c(N2CCN(Cn3c(O)c(/N=N/C(=O)c4ccncc4)c4cc(C)ccc43)C(C)C2)c(F)cc2c(=O)c(C(=O)O)cn(C3CC3)c12 (centres undefined) | Not toxic | 0.78 (≈ 1.17 µM) | 5.5 (≈ 8.24 µM) |  |  | 
COc1c(N2CCNC(C)C2)c(F)cc2c(=O)c(C(=O)O)cn(C3CC3)c12 (centres undefined) [GATIFLOXACIN] |  | 0.2 (≈ 0.533 µM) | 4 (≈ 10.7 µM) | 5.82 |  | 6.14
COc1c(N2CCN(Cn3c(O)c(/N=N/C(=N)S)c4ccccc43)C(C)C2)c(F)cc2c(=O)c(C(=O)O)cn(C3CC3)c12 (centres undefined) | Not toxic | 0.2 (≈ 0.329 µM) | 5 (≈ 8.23 µM) |  |  | 
